Test system: E2-induced (ER target) genes in MCF7
Experiment: Gene expression analysis by RNA-sequencing in MCF7 with E2 stimulation
Type: cell-based, human
Settings: MCF7; 1 nM E2 ± 1 μM compound, 24 h
Method: MCF7 were cultured in hormone deprivation media (with 10% charcoal-stripped FBS) for at least 3 days before assay. Trypsinized cells were seeded in a 12-well plate, stimulated with 1 nM β-estradiol (E2), and treated with/without 1 μM compounds for 24 h. Total RNA was extracted using the TRIzol reagent according to the manufacturer’s protocol. RNA purity and quantification were evaluated using the NanoDrop 2000 spectrophotometer (Thermo Scientific, USA). RNA integrity was assessed using the Agilent 2100 Bioanalyzer (Agilent Technologies, Santa Clara, CA, USA). Then the libraries were constructed using TruSeq Stranded mRNA LT Sample Prep Kit (Illumina, San Diego, CA, USA) according to the manufacturer’s instructions. The transcriptome sequencing and analysis were conducted by OE Biotech Co., Ltd. (Shanghai, China). The libraries were sequenced on an Illumina HiSeq X Ten platform and 150 bp paired-end reads were generated. […] Raw data (raw reads) of FASTq format were firstly processed using Trimmomatic and the low-quality reads were removed to obtain the clean reads. […] The clean reads were mapped to the human genome (GRCh38) using HISAT2 [27]. FPKM [28] of each gene was calculated using Cufflinks, and the read counts of each gene were obtained by HTSeqcount. Differential expression analysis was performed using the DESeq (2012) R package.
MCF7 with hormone-deprived pre-treatment were administrated ER ligands or not present with 1 nM E2 stimulation for 24 h incubation in a 12-well plate. Total mRNA was isolated from treated cells and sequenced on an Illumina HiSeq X Ten platform. FPKM of each gene was calculated using Cufflinks and Differential expression genes analysis by using the DESeq (2012) R package. […] T47D EFM-19 and HCC1500 cells were grown in RPMI media supplemented with 10% charcoal-stripped FBS for 14 days and then treated with ER antagonist (1 μM) or DMSO in the presence E2 (1nM) stimulation for 24 h before RNA isolation and gene expression analysis as described in methods. […] The uteruses were harvested 24 h after the final doses and stained by toluidine blue. Endometrial height was assessed from the basement membrane to the luminal border (scale bar in green lines: 200 μm), Arrows indicate the uterine epithelium (e).

C[C@]12CC[C@@H]3c4ccc(O)cc4C[C@@H](CCCCCCCCC[S+]([O-])CCCC(F)(F)C(F)(F)F)[C@H]3[C@@H]1CC[C@@H]2O (some centres unmarked) [Fulvestrant]
ACTG2 expression: 1.20 FPKM | ADCY1 expression: 6.76 FPKM | AGR3 expression: 2.46 FPKM | AMZ1 expression: 0.77 FPKM | ANLN expression: 18.71 FPKM | ARHGAP36 expression: 0.28 FPKM | ASCL1 expression: 0.54 FPKM | ASF1B expression: 26.04 FPKM | ASMTL-2 expression: 1.41 FPKM | ATAD2 expression: 23.77 FPKM | ATRNL1 expression: 0.05 FPKM | AURKB expression: 19.26 FPKM | BIRC5 expression: 23.46 FPKM | BLM expression: 2.45 FPKM | BMPER expression: 0.11 FPKM | BRCA1 expression: 2.96 FPKM | BRCA2 expression: 2.04 FPKM | BRIP1 expression: 17.34 FPKM | BUB1B expression: 8.27 FPKM | C1orf226 expression: 3.74 FPKM | C5AR2 expression: 0.51 FPKM | CA2 expression: 87.89 FPKM | CA12 expression: 18.70 FPKM | CALCR expression: 0.77 FPKM | CAV1 expression: 5.48 FPKM | CCN5 expression: 22.35 FPKM | CCNA2 expression: 15.79 FPKM | CCNE2 expression: 4.70 FPKM | CD99-2 expression: 1.09 FPKM | CDC6 expression: 4.59 FPKM | CDC25A expression: 1.67 FPKM | CDC45 expression: 5.51 FPKM | CDCA3 expression: 6.06 FPKM | CDCA4 expression: 12.74 FPKM | CDCA5 expression: 11.52 FPKM | CDCA7 expression: 1.84 FPKM | CDH26 expression: 0.21 FPKM | CDK1 expression: 14.26 FPKM | CDT1 expression: 21.42 FPKM | CENPI expression: 2.93 FPKM | CENPU expression: 4.96 FPKM | CHAF1B expression: 1.52 FPKM | CHEK1 expression: 2.32 FPKM | CKS1B expression: 46.61 FPKM | CLSPN expression: 1.80 FPKM | COL12A1 expression: 1.73 FPKM | CXCL12 expression: 1.70 FPKM | DDIAS expression: 2.63 FPKM | DHRSX-2 expression: 0.11 FPKM | DKK1 expression: 26.72 FPKM | DNA2 expression: 2.77 FPKM | DPYSL5 expression: 0.36 FPKM | DSCC1 expression: 4.38 FPKM | DTL expression: 1.38 FPKM | E2F1 expression: 7.00 FPKM | E2F2 expression: 1.27 FPKM | E2F7 expression: 2.55 FPKM | E2F8 expression: 3.66 FPKM | ELOVL2 expression: 3.33 FPKM | EME1 expression: 3.73 FPKM | ERCC6L expression: 1.34 FPKM | ESCO2 expression: 2.24 FPKM | ESPL1 expression: 7.73 FPKM | EXO1 expression: 2.15 FPKM | FAM20A expression: 0.46 FPKM | FAM111B expression: 2.82 FPKM | FANCA expression: 9.92 FPKM | FANCD2 expression: 5.42 FPKM | FANCI expression: 16.43 FPKM | FEN1 expression: 24.35 FPKM | FIGNL1 expression: 2.36 FPKM | FKBP4 expression: 43.52 FPKM | GATA4 expression: 0.00 FPKM | GFRA1 expression: 26.23 FPKM | GINS1 expression: 8.52 FPKM | GINS2 expression: 8.09 FPKM | GJA1 expression: 0.06 FPKM | GLA expression: 31.47 FPKM | GP1BB expression: 0.79 FPKM | GPR68 expression: 0.13 FPKM | GPRIN1 expression: 2.95 FPKM | GREB1 expression: 3.94 FPKM | H2AX expression: 89.38 FPKM | HBB expression: 0.00 FPKM | HELLS expression: 2.89 FPKM | HEY2 expression: 0.43 FPKM | HMGB2 expression: 118.94 FPKM | IGFBP4 expression: 26.82 FPKM | IGSF1 expression: 3.55 FPKM | ITGA2B expression: 0.30 FPKM | KIF11 expression: 11.20 FPKM | KIF18B expression: 4.13 FPKM | KIFC1 expression: 12.36 FPKM | KLK11 expression: 1.75 FPKM | KNL1 expression: 3.41 FPKM | KNTC1 expression: 5.81 FPKM | LHX2 expression: 1.30 FPKM | LIG1 expression: 19.47 FPKM | LMNB1 expression: 49.03 FPKM | MAD2L1 expression: 6.32 FPKM | MCM2 expression: 24.98 FPKM | MCM3 expression: 30.18 FPKM | MCM4 expression: 38.73 FPKM | MCM5 expression: 9.71 FPKM | MCM6 expression: 18.69 FPKM | MCM7 expression: 65.17 FPKM | MCM10 expression: 2.51 FPKM | MELK expression: 9.66 FPKM | MKI67 expression: 19.11 FPKM | MYB expression: 3.86 FPKM | MYBL1 expression: 0.96 FPKM | MYBL2 expression: 29.90 FPKM | NCAPG2 expression: 15.05 FPKM | NCAPG expression: 5.76 FPKM | NPY1R expression: 3.20 FPKM | ORC1 expression: 2.67 FPKM | ORC6 expression: 5.57 FPKM | PAQR4 expression: 9.57 FPKM | PBK expression: 14.24 FPKM | PCLAF expression: 28.12 FPKM | PCNA expression: 48.34 FPKM | PDZK1 expression: 0.47 FPKM | PGR expression: 0.52 FPKM | PKIB expression: 16.14 FPKM | PKMYT1 expression: 9.90 FPKM | POLA1 expression: 2.69 FPKM | POLA2 expression: 4.51 FPKM | POLD1 expression: 11.19 FPKM | POLE2 expression: 2.45 FPKM | POLE expression: 11.56 FPKM | POLQ expression: 2.64 FPKM | PRIM1 expression: 7.88 FPKM | PRSS23 expression: 49.30 FPKM | RAB31 expression: 6.58 FPKM | RAD51AP1 expression: 5.24 FPKM | RAD51 expression: 3.28 FPKM | RAD54L expression: 3.44 FPKM | RAMP3 expression: 0.40 FPKM | RAPGEFL1 expression: 2.18 FPKM | RBL1 expression: 2.06 FPKM | RECQL4 expression: 10.79 FPKM | RERG expression: 2.17 FPKM | RET expression: 1.74 FPKM | RFC2 expression: 14.47 FPKM | RFC3 expression: 3.82 FPKM | RFC4 expression: 10.05 FPKM | RNASEH2A expression: 24.71 FPKM | RRM1 expression: 19.08 FPKM | RRM2 expression: 24.81 FPKM | RUBCNL expression: 0.10 FPKM | SDK2 expression: 0.25 FPKM | SFXN2 expression: 7.17 FPKM | SHCBP1 expression: 2.87 FPKM | SKA3 expression: 4.69 FPKM | SLC6A14 expression: 8.71 FPKM | SMC2 expression: 6.16 FPKM | SPC24 expression: 6.59 FPKM | SPC25 expression: 6.79 FPKM | STC2 expression: 28.34 FPKM | TACC3 expression: 19.06 FPKM | TCF19 expression: 6.28 FPKM | TCOF1 expression: 9.75 FPKM | TGM2 expression: 0.56 FPKM | TICRR expression: 3.71 FPKM | TK1 expression: 42.16 FPKM | TMEM26 expression: 0.84 FPKM | TMEM164 expression: 6.22 FPKM | TONSL expression: 9.44 FPKM | TOP2A expression: 29.21 FPKM | TP73 expression: 1.03 FPKM | TRIP13 expression: 6.92 FPKM | TUBA1B expression: 473.72 FPKM | TUBB expression: 230.78 FPKM | TYMS expression: 25.13 FPKM | UBE2C expression: 32.42 FPKM | UBE2T expression: 45.52 FPKM | UHRF1 expression: 6.71 FPKM | UNG expression: 29.02 FPKM | WDHD1 expression: 4.38 FPKM | WDR62 expression: 5.55 FPKM | WDR76 expression: 1.69 FPKM | XRCC2 expression: 2.48 FPKM | XRCC3 expression: 5.83 FPKM | ZGRF1 expression: 1.75 FPKM | ZNF367 expression: 4.18 FPKM

Reference: paper PMC10426190 (Breast Cancer Research : BCR, 2023)
